These results are taken from patent EP0481320A1, “Novel cyclobutane derivatives” (NIPPON KAYAKU KABUSHIKI KAISHA, priority 1990, dated 1992).

In this assay the test system is herpes simplex 1 virus (HSV-1). Description: Plaque reduction test of antiviral activity in Vero cells. To be noted: Vero cells infected with 100-150 PFU; agar overlay with test compound; 37°C for 72 hours; plaque count. It counts as cell-based. As for the experimental part: Antiviral activity against herpes simplex 1 virus (HSV-1), which is a DNA virus, was tested by the following method. Vero cells (originating from kidney cells of African Green Monkey) spread in a monolayer onto 6-wells multiplate were infected with 100-150 PFU (Plaque Forming Units) of the virus. After a 1-hour adsorption period at 37°C, an agar medium (Eagle's minimum essential medium containing 1.5% agar) containing respective concentrations of the test compound (obtained in Example 4) was overlaid thereonto, and cultured in a 5% (V/V) carbon dioxide incubator at 37°C for 72 hours. The number of plaques formed was counted, from which the 50% inhibition concentration (IC₅₀) was determined.
(In general: In a plaque reduction assay, fewer plaques than in the control indicate reduced infectivity or spread.)

On to `CC(O)C1C(CO)CC1n1cnc2c(=O)[nH]c(N)nc21` (single isomer, unassigned) [4-2, 9-[(1β,2α,3β)-2-(1-hydroxyethyl)-3-hydroxymethyl-1-cyclobutyl]guanine-(2)], for which the “IC₅₀ (µg/ml) (HSV-1)” value amounted to 0.163 µg/mL.
Regarding `CC(O)C1C(CO)CC1n1cnc2c(=O)[nH]c(N)nc21` (single isomer, unassigned) [4-1, 9-[(1β,2α,3β)-2-(1-hydroxyethyl)-3-hydroxymethyl-1-cyclobutyl]guanine-(1)], the “IC₅₀ (µg/ml) (HSV-1)” value is 45.2 µg/mL.
